The structures appear in SMILES notation.

The nature of assay [1]: In vitro inhibition of binding of integrin alpha4-beta7 to immobilized MAdCAM-1 expressed on epithelial cell surface. Type of assay: functional, cell-based.
In the next assay the target is Integrin alpha-4/beta-1 (Homo sapiens, UniProt P05556+P13612). Put plainly: In vitro inhibition of binding of integrin alpha4-beta1 to immobilized VCAM-1 expressed on endothelial cell surface. It is filed as functional, cell-based.
A short description of assay [2]: Inhibition of integrin alpha4-beta7 binding to immobilized MAdCAM-1 (mucosal addressin cell adhesion molecule-1) of epithelial cells at 5 uM. It is filed as functional.

Sequence of Integrin alpha-4/beta-1 (P05556 whole entry): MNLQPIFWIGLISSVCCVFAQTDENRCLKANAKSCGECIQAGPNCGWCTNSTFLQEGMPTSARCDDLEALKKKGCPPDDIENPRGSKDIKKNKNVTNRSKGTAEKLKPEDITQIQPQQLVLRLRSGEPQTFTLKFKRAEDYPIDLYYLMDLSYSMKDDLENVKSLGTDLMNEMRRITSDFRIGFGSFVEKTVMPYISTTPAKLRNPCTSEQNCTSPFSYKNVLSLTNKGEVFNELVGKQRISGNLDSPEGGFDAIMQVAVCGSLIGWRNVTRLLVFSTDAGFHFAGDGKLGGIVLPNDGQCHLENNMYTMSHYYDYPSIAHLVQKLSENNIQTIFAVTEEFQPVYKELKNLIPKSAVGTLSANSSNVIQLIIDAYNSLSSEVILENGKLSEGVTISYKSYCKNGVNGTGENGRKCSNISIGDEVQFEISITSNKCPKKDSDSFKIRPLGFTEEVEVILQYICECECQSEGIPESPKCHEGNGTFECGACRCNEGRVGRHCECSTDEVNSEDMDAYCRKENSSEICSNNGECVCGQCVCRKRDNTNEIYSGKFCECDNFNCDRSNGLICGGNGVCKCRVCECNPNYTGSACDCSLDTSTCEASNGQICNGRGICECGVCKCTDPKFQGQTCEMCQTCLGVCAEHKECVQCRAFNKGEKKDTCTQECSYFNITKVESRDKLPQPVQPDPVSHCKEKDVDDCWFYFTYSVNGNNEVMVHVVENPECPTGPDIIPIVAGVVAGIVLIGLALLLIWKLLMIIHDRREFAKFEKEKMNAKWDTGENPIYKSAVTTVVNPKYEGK
Sequence of Integrin alpha-4/beta-1 (P13612 whole entry): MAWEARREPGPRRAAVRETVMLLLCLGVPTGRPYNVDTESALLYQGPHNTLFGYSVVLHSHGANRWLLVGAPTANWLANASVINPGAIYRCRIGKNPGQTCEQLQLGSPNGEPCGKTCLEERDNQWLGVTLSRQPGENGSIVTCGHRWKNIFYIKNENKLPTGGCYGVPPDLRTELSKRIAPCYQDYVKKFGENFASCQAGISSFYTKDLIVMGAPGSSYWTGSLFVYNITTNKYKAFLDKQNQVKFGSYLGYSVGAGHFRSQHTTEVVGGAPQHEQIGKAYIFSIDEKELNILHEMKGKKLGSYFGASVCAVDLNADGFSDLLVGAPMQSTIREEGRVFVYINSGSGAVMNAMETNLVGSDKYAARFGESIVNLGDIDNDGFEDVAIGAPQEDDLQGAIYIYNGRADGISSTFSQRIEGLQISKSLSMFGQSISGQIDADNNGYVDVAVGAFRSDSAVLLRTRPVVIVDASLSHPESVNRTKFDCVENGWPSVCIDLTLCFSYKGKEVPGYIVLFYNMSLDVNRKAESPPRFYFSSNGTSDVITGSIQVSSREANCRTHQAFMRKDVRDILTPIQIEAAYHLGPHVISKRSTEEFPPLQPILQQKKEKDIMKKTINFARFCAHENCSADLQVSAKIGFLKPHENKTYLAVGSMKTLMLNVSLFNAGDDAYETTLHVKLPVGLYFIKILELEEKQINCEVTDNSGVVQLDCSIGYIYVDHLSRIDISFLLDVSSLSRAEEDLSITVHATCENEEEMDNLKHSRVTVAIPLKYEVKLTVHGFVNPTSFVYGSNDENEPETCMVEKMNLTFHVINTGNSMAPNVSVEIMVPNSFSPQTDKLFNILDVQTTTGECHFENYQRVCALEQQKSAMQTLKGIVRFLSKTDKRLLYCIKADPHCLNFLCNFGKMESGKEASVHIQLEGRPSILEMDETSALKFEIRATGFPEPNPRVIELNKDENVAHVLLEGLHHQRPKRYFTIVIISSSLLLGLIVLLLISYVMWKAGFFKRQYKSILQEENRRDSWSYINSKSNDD

The IC50 is the concentration needed to halve the response being measured. In the case of `O=C(Nc1ccc(C[C@H](NC(=O)C2C3CCC(CC3)N2S(=O)(=O)c2c(Cl)cccc2Cl)C(=O)O)cc1)c1cc(Cl)nc(Cl)c1` (some centres undefined), the IC50 in assay [1] turned out to be 11 nM; on Integrin alpha-4/beta-1, 105 nM. In turn, `O=C(O)[C@H](Cc1ccc(N2C(=O)c3ccccc3C2=O)cc1)NC(=O)[C@@H]1C2CCC(CC2)N1S(=O)(=O)c1ccccc1` yielded an IC50 in assay [1] of 312 nM.

A word on the inhibition: it is the drop in the measured response relative to a control, in per cent. The low end stands for a response near the control, the high end for a response far below the control. Molecule `Cc1ccc(S(=O)(=O)N2C3CCC(CC3)C2C(=O)N[C@@H](Cc2ccc(NC(=O)c3ccccc3)cc2)C(=O)O)cc1` (some centres undefined) came in with an inhibition at 5 µM in assay [2] of 30%. On to `COc1cccc(OC)c1-c1ccc(C[C@H](NC(=O)[C@@H]2C3CCC(CC3)N2S(=O)(=O)c2ccccc2)C(=O)O)cc1`, for which the IC50 in assay [1] was found to be 90 nM.

Regarding `O=C(Nc1ccc(C[C@H](NC(=O)[C@@H]2C3CCC(CC3)N2S(=O)(=O)c2ccccc2)C(=O)O)cc1)c1ccncc1`, the IC50 in assay [1] was 175 nM; at Integrin alpha-4/beta-1 it was 36 nM. For `O=C(Nc1ccc(C[C@H](NC(=O)C2C3CCC(CC3)N2S(=O)(=O)c2ccc(Cl)s2)C(=O)O)cc1)c1cc(Cl)nc(Cl)c1` (some centres undefined), the IC50 in assay [1] is 64 nM; at Integrin alpha-4/beta-1, 11 nM.

In the case of `O=C(Nc1ccc(C[C@H](NC(=O)[C@@H]2C3CCC(CC3)N2S(=O)(=O)c2cccs2)C(=O)O)cc1)c1c(Cl)cccc1Cl`, the IC50 is 62 nM in assay [1] and 30 nM at Integrin alpha-4/beta-1. For `Cc1ccc(S(=O)(=O)N2C3CCC(CC3)C2C(=O)N[C@@H](Cc2ccc(NC(=O)Cc3c(Cl)cccc3Cl)cc2)C(=O)O)cc1` (some centres undefined), the inhibition at 5 µM in assay [2] is 28%. Consider `Cc1ccc(S(=O)(=O)N2C3CCC(CC3)C2C(=O)N[C@@H](Cc2ccc(NC(=O)c3c(Cl)cccc3Cl)cc2)C(=O)O)cc1` (some centres undefined), for which, in assay [1], the IC50 was found to be 320 nM. For the molecule `COc1cccc(OC)c1-c1ccc(C[C@H](NC(=O)[C@@H]2C[C@@H](c3ccccc3)CN2S(=O)(=O)c2ccccc2)C(=O)O)cc1`, the IC50 in assay [1] was 119 nM; on Integrin alpha-4/beta-1, 30 nM. Consider `O=C(Nc1ccc(C[C@H](NC(=O)[C@@H]2C3CCC(CC3)N2S(=O)(=O)c2ccccc2)C(=O)O)cc1)c1cc(Cl)nc(Cl)c1`, for which the values for the IC50 (in assay [1]; on Integrin alpha-4/beta-1) were 13 nM and 12 nM, respectively.

Consider `O=C(Nc1ccc(C[C@H](NC(=O)C2C3CCC(CC3)N2S(=O)(=O)c2cc(Cl)c(Cl)s2)C(=O)O)cc1)c1cc(Cl)nc(Cl)c1` (some centres undefined), for which the IC50 in assay [1] is 14 nM; on Integrin alpha-4/beta-1 it was 69 nM. `O=C(Nc1ccc(C[C@H](NC(=O)[C@@H]2C3CCC(CC3)N2S(=O)(=O)c2cccs2)C(=O)O)cc1)c1cc(Cl)nc(Cl)c1`: the IC50 turned out to be 32 nM in assay [1] and 5 nM at Integrin alpha-4/beta-1.

For the molecule `O=C(Nc1ccc(C[C@H](NC(=O)[C@@H]2C3CCC(CC3)N2S(=O)(=O)c2cccc3ccncc23)C(=O)O)cc1)c1cc(Cl)nc(Cl)c1`, the IC50 in assay [1] was found to be 22 nM; at Integrin alpha-4/beta-1, 12 nM. The corresponding values for `O=C(Nc1ccc(C[C@H](NC(=O)[C@@H]2C3CCC(CC3)N2S(=O)(=O)c2ccccc2)C(=O)O)cc1)c1c(Cl)cccc1Cl` are 94 nM and 19 nM. In turn, `O=C(Nc1ccc(C[C@H](NC(=O)[C@H]2C3CCC(CC3)N2S(=O)(=O)c2ccccc2)C(=O)O)cc1)c1c(Cl)cccc1Cl` returned an IC50 at Integrin alpha-4/beta-1 of 1600 nM. `O=C(Nc1ccc(C[C@H](NC(=O)C2C3CCC(CC3)N2S(=O)(=O)c2ccccc2C(F)(F)F)C(=O)O)cc1)c1cc(Cl)nc(Cl)c1` (some centres undefined): the IC50 in assay [1] was found to be 102 nM; at Integrin alpha-4/beta-1 it was 81 nM.

Consider `Cc1ccc(S(=O)(=O)N2C3CCC(CC3)C2C(=O)N[C@@H](Cc2ccc(NC(=O)Nc3c(Cl)cccc3Cl)cc2)C(=O)O)cc1` (some centres undefined), for which, at Integrin alpha-4/beta-1, the half-inhibitory concentration (IC50) turned out to be 1600 nM. For the molecule `Cc1ccc(S(=O)(=O)N2C3CCC(CC3)C2C(=O)N[C@@H](Cc2ccc(NC(=O)c3c(Cl)cc(Cl)cc3Cl)cc2)C(=O)O)cc1` (some centres undefined), the IC50 in assay [1] was determined as 430 nM.

On to `CC(=O)N1CSC[C@@H]1C(=O)N[C@@H](Cc1ccc(OCc2c(Cl)cccc2Cl)cc1)C(=O)O`, for which the figures for the 50% inhibitory concentration (IC50) (in assay [1]; at Integrin alpha-4/beta-1) were 90 nM and 410 nM, respectively. Taken in the same sequence, the figures for `O=C(Nc1ccc(C[C@H](NC(=O)[C@@H]2C3CCC(CC3)N2S(=O)(=O)c2cccc3cccnc23)C(=O)O)cc1)c1cc(Cl)nc(Cl)c1` were 151 nM and 150 nM.

The values are drawn from ChEMBL document CHEMBL1147416, “Aza-bicyclic amino acid sulfonamides as alpha(4)beta(1)/alpha(4)beta(7) integrin antagonists” (Bioorg Med Chem Lett, 2004).
